Measurements from patent US20130065818A1, “Arylamide Compounds And Compositions And Uses Thereof” (POLYMEDIX, priority 2006, published 2013).
Like-named read-outs stand apart in the source and are kept apart here.

How the values were obtained:
Format in all cases: cell-based
[1] = system: Fluoroquinolone-Resistant Methicillin-Resistant Staphylococcus aureus Strain K950; experiment: MIC characterization of strain K950; conditions: read-out: MIC (Minimum Inhibitory Concentration)
E. faecalis ATCC 29212 = experiment: MIC, laboratory strains (Example 8)
[2] = system: Moraxella species (including Moraxella catarrhalis); experiment: MIC, 25 ocular isolates, broth microdilution (Example 8)
Streptococcus pneumoniae = experiment: as above
[3] = Moraxella, 25 ocular isolates, Mueller-Hinton broth with 2% lysed horse red blood cells, read-out: Median MIC
[4] = Moraxella, isolate 1 K1614 - MS, read-out: MIC
[5] = Moraxella, isolate 2 K1661 - MS, read-out: MIC
[6] = Moraxella, isolate 3 K1643 - MS, read-out: MIC
[7] = Moraxella, isolate 4 K1640 - MS, read-out: MIC
[8] = Moraxella, isolate 5 B1431 - MS, read-out: MIC
[9] = Moraxella, isolate 6 B1429 - MS, read-out: MIC
[10] = Moraxella, isolate 7 B1418 - MS, read-out: MIC
[11] = Moraxella, isolate 8 K1784 - MS, read-out: MIC
[12] = Moraxella, isolate 9 K1773 - MS, read-out: MIC
[13] = Moraxella, isolate 10 K1369 - MS, read-out: MIC
[14] = Moraxella, isolate 11 B1275 - MS, read-out: MIC
[15] = Moraxella, isolate 12 B1221 - MS, read-out: MIC
[16] = Moraxella, isolate 13 B1172 - MS, read-out: MIC
[17] = Moraxella, isolate 14 E542 - MS, read-out: MIC
[18] = Moraxella, isolate 15 K678 - MS, read-out: MIC
[19] = Moraxella, isolate 16 K660 - MS, read-out: MIC
[20] = Moraxella, isolate 17 K599 - MC, read-out: MIC
[21] = Moraxella, isolate 18 K1650 - MC, read-out: MIC
[22] = Moraxella, isolate 19 K1373 - MC, read-out: MIC
[23] = Moraxella, isolate 20 K1553 - MC, read-out: MIC
[24] = Moraxella, isolate 21 K1453 - MC, read-out: MIC
[25] = Moraxella, isolate 22 K1227 - MC, read-out: MIC
[26] = Moraxella, isolate 23 B1102 - MC, read-out: MIC
[27] = Moraxella, isolate 24 K1819 - MC, read-out: MIC
[28] = Moraxella, isolate 25 K1855 - MC, read-out: MIC
[29] = Moraxella, n=25 isolates, >64 replaced with 128, read-out: MIC50
[30] = Moraxella, n=25 isolates, >64 replaced with 128, read-out: MIC90
[31] = Moraxella, n=25 isolates, >64 replaced with 128, read-out: Median MIC
[32] = n=25 isolates, >64 replaced with 128
[33] = 25 isolates, Summary of Results, >64 was Replaced with 128
[34] = Streptococcus pneumoniae, 25 ocular isolates, Mueller-Hinton broth with 2% lysed horse red blood cells, read-out: Median MIC
[35] = Streptococcus pneumoniae, isolate 1—B1386, read-out: MIC
[36] = Streptococcus pneumoniae, isolate 2—B1380, read-out: MIC
[37] = Streptococcus pneumoniae, isolate 3—B1378, read-out: MIC
[38] = Streptococcus pneumoniae, isolate 4—B1377, read-out: MIC
[39] = Streptococcus pneumoniae, isolate 5—B1373, read-out: MIC
[40] = Streptococcus pneumoniae, isolate 6—B1367, read-out: MIC
[41] = Streptococcus pneumoniae, isolate 7—B1355, read-out: MIC
[42] = Streptococcus pneumoniae, isolate 8—B1353, read-out: MIC
[43] = Streptococcus pneumoniae, isolate 9—B1351, read-out: MIC
[44] = Streptococcus pneumoniae, isolate 10—B1339, read-out: MIC
[45] = Streptococcus pneumoniae, isolate 11—B1337, read-out: MIC
[46] = Streptococcus pneumoniae, isolate 12—B1335, read-out: MIC
[47] = Streptococcus pneumoniae, isolate 13—B1334, read-out: MIC
[48] = Streptococcus pneumoniae, isolate 14—B1333, read-out: MIC
[49] = Streptococcus pneumoniae, isolate 15—B1255, read-out: MIC
[50] = Streptococcus pneumoniae, isolate 16—B1288, read-out: MIC
[51] = Streptococcus pneumoniae, isolate 17—B1287, read-out: MIC
[52] = Streptococcus pneumoniae, isolate 18—B1272, read-out: MIC
[53] = Streptococcus pneumoniae, isolate 19—B1264, read-out: MIC
[54] = Streptococcus pneumoniae, isolate 20—B1252, read-out: MIC
[55] = Streptococcus pneumoniae, isolate 21—B1245, read-out: MIC
[56] = Streptococcus pneumoniae, isolate 22—B1211, read-out: MIC
[57] = Streptococcus pneumoniae, isolate 23—B1213, read-out: MIC
[58] = Streptococcus pneumoniae, isolate 24—B1208, read-out: MIC
[59] = Streptococcus pneumoniae, isolate 25—B1214, read-out: MIC
[60] = Streptococcus pneumoniae, n=25 per group, read-out: Median MIC
[61] = Streptococcus pneumoniae, 25 isolates, Summary of Results, read-out: MIC50
[62] = Streptococcus pneumoniae, 25 isolates, Summary of Results, read-out: MIC90
[63] = Streptococcus pneumoniae, 25 isolates, Summary of Results, read-out: Median MIC

N=C(N)NCCCCC(=O)Nc1cc(C(F)(F)F)cc(NC(=O)c2cc(C(=O)Nc3cc(C(F)(F)F)cc(NC(=O)CCCCNC(=N)N)c3SCCN)ncn2)c1SCCN [Oligomer 2]
0.25 µg/mL: MIC [1]

N=C(N)NCCCCC(=O)Nc1cc(C(F)(F)F)cc(NC(=O)c2cc(C(=O)Nc3cc(C(F)(F)F)cc(NC(=O)CCCCNC(=N)N)c3O[C@@H]3CCNC3)ncn2)c1O[C@@H]1CCNC1 [Oligomer 4]
0.5 µg/mL: MIC [1] | MIC [2, 20] | MIC (Streptococcus pneumoniae; [45]) | MIC (Streptococcus pneumoniae; [49]) | MIC (Streptococcus pneumoniae; [52]) | MIC (Streptococcus pneumoniae; [53]) | MIC (Streptococcus pneumoniae; [55]) | MIC (Streptococcus pneumoniae; [58])
32 µg/mL: MIC [2, 5] | MIC [2, 8] | MIC [2, 10]
0.5 to 128 µg/mL: Range of MICs [2, 32] | Range of MICs (Streptococcus pneumoniae; [33]) | Range of MICs (Streptococcus pneumoniae; n=25 per group)
64 µg/mL: MIC [2, 6] | MIC [2, 11] | MIC [2, 12] | MIC [2, 21] | MIC90 [2, 30] | MIC90 [2, 32]
0.78 µg/mL: MIC (E. faecalis ATCC 29212)
4 µg/mL: MIC [2, 23] | MIC [2, 24] | MIC [2, 27] | MIC50 [2, 29] | MIC [2, 31] | MIC50 [2, 32]
8 µg/mL: MIC [2, 7]
> 64 µg/mL: MIC [2, 16] | MIC (Streptococcus pneumoniae; [35])
1 µg/mL: MIC [2, 9] | MIC [2, 22] | MIC [2, 26] | MIC50 (Streptococcus pneumoniae; 25 isolates, Row 13) | MIC (Streptococcus pneumoniae; [36]) | MIC (Streptococcus pneumoniae; [37]) | MIC (Streptococcus pneumoniae; [39]) | MIC (Streptococcus pneumoniae; [40]) | MIC (Streptococcus pneumoniae; [42]) | MIC (Streptococcus pneumoniae; [43]) | MIC (Streptococcus pneumoniae; [44]) | MIC (Streptococcus pneumoniae; [47]) | MIC (Streptococcus pneumoniae; [48]) | MIC (Streptococcus pneumoniae; [50]) | MIC (Streptococcus pneumoniae; [51]) | MIC (Streptococcus pneumoniae; [54]) | MIC (Streptococcus pneumoniae; [56]) | MIC (Streptococcus pneumoniae; [57]) | MIC (Streptococcus pneumoniae; [59]) | MIC (Streptococcus pneumoniae; [60]) | MIC50 (Streptococcus pneumoniae; [61]) | MIC (Streptococcus pneumoniae; [63]) | MIC50 (Streptococcus pneumoniae; n=25 per group)
2 µg/mL: MIC [2, 13] | MIC [2, 14] | MIC [2, 15] | MIC [2, 17] | MIC [2, 18] | MIC [2, 19] | MIC [2, 25] | MIC [2, 28] | MIC90 (Streptococcus pneumoniae; 25 isolates, Row 22) | MIC (Streptococcus pneumoniae; [38]) | MIC (Streptococcus pneumoniae; [41]) | MIC (Streptococcus pneumoniae; [46]) | MIC90 (Streptococcus pneumoniae; [62]) | MIC90 (Streptococcus pneumoniae; n=25 per group)
16 µg/mL: MIC [2, 4]
≤ 4 µg/mL: MIC [2, 3] | MIC (Streptococcus pneumoniae; [34])

N=C(N)NCCCCC(=O)Nc1cc(C(F)(F)F)cc(NC(=O)c2cnc(C(=O)Nc3cc(C(F)(F)F)cc(NC(=O)CCCCNC(=N)N)c3SCCN)cn2)c1SCCN [Oligomer 5]
64 µg/mL: MIC [2, 4] | MIC [2, 24]
0.5 µg/mL: MIC [2, 8] | MIC [2, 18] | MIC [2, 26] | MIC50 [2, 29] | MIC [2, 31] | MIC50 [2, 32] | MIC (Streptococcus pneumoniae; [37])
1.56 µg/mL: MIC (E. faecalis ATCC 29212)
2 µg/mL: MIC [2, 13] | MIC [2, 17] | MIC [2, 23] | MIC (Streptococcus pneumoniae; [44]) | MIC (Streptococcus pneumoniae; [55])
0.125 to 128 µg/mL: Range of MICs [2, 32]
1 µg/mL: MIC [2, 9] | MIC [2, 25] | MIC (Streptococcus pneumoniae; [43]) | MIC (Streptococcus pneumoniae; [45]) | MIC (Streptococcus pneumoniae; [46]) | MIC (Streptococcus pneumoniae; [47]) | MIC (Streptococcus pneumoniae; [48]) | MIC (Streptococcus pneumoniae; [49]) | MIC (Streptococcus pneumoniae; [52]) | MIC (Streptococcus pneumoniae; [53])
4 µg/mL: MIC50 (Streptococcus pneumoniae; 25 isolates, Row 13) | MIC (Streptococcus pneumoniae; [36]) | MIC (Streptococcus pneumoniae; [42]) | MIC (Streptococcus pneumoniae; [59]) | MIC (Streptococcus pneumoniae; [60]) | MIC50 (Streptococcus pneumoniae; [61]) | MIC (Streptococcus pneumoniae; [63]) | MIC50 (Streptococcus pneumoniae; n=25 per group)
> 64 µg/mL: MIC [2, 16] | MIC (Streptococcus pneumoniae; [35])
32 µg/mL: MIC [2, 27] | MIC90 [2, 30] | MIC90 [2, 32]
0.125 µg/mL: MIC [2, 6] | MIC [2, 14] | MIC [2, 15] | MIC [2, 22]
≤ 4 µg/mL: MIC [2, 3] | MIC (Streptococcus pneumoniae; [34])
4 to 128 µg/mL: Range of MICs (Streptococcus pneumoniae; [33]) | Range of MICs (Streptococcus pneumoniae; n=25 per group)
0.25 µg/mL: MIC [2, 10] | MIC [2, 11] | MIC [2, 12] | MIC [2, 19] | MIC [2, 20] | MIC [2, 21]
8 µg/mL: MIC [2, 7] | MIC [2, 28] | MIC (Streptococcus pneumoniae; [38]) | MIC (Streptococcus pneumoniae; [39]) | MIC (Streptococcus pneumoniae; [41]) | MIC (Streptococcus pneumoniae; [50]) | MIC (Streptococcus pneumoniae; [56]) | MIC (Streptococcus pneumoniae; [58])
16 µg/mL: MIC [2, 5] | MIC90 (Streptococcus pneumoniae; 25 isolates, Row 22) | MIC (Streptococcus pneumoniae; [40]) | MIC (Streptococcus pneumoniae; [51]) | MIC (Streptococcus pneumoniae; [54]) | MIC (Streptococcus pneumoniae; [57]) | MIC90 (Streptococcus pneumoniae; [62]) | MIC90 (Streptococcus pneumoniae; n=25 per group)
